Experimental data: patent publication US20190337889A1, “COMPOSITIONS AND METHODS OF REGULATING CANCER RELATED DISORDERS AND DISEASES” (ONCO THERAPIES LLC, priority 2016, published 2019)

Assays:
MDA-MB-231 = assay: XTT cell death assay, MDA-MB-231 cells; assay type: cell-based; conditions: Homo sapiens, # = 200 uM not tested, read-out: MDA-MB-231: concentration with effect on cancer cells
Method: (§1) Maintenance and Treatment of Cell Lines. Human HepG2 hepatocarcinoma cells and human U87MG glioma cells (ATCC, Manassas, Va.) were maintained in EMEM medium supplemented with 10% FBS (Hyclone, Logan, Utah). The human 1321N1 astrocytoma cells (European Collection of Cell Cultures, Sigma-Aldrich) were cultured in Dulbecco's modified Eagle's medium supplemented with 10% FBS and 2 mM L-glutamine. Human prostate carcinoma cell line PC3 was cultured in F-12K medium (Life Technologies) supplemented 10% FBS. Human lung carcinoma cell line A549 was cultured in DMEM+2 mM glutamine+10% FBS. ER positive, estrogen independent for growth MCF7/LCC9 cell line was cultured in IMEM (Biofluids) supplemented with 5% charcoal stripped calf serum. Medulloblastoma cell line DAOY was cultured in Eagle's MEM supplemented with 10% FBS. All cell lines except MDA-MB-321 were cultured at 37° C. in 5% CO2, and the medium was replaced every 2-3 days. MDA-MB-231 was grown in Leibovitz's L-15 medium with 10% FBS without CO2 supplementation.
(§2) Cell death assay. The extent of cell death and toxicity of the compounds was tested by XTT assay. The cells were plated in their respective media in 96-well plates. The compounds and were added in dilutions ranging from 0.01 nM to 200 μM and for control DMSO to 1% was used. […] For XTT assay first the medium in the wells was replaced with 200 μs of fresh phenol-red free medium. Then 50 μls of XTT solution with PMS was added to the wells. The XTT solution was made adding 0.02% phenazine methosulfate (Sigma-Aldrich #P9625) to 1 mg/ml XTT sodium salt made up in phenol-red free RPMI (Sigma-Aldrich #X4636). The plate was incubated for 4 hours at 37° C. and then the absorbance was read at a wavelength of 490 nm.

DAOY = assay: XTT cell death assay, DAOY medulloblastoma cells; assay type: cell-based; conditions: Homo sapiens, # = 200 uM not tested, read-out: DAOY: concentration with effect on cancer cells
Method: as §1, §2

MCF7/LCC9 cell line = assay: XTT cell death assay, MCF7/LCC9 cells; assay type: cell-based; conditions: Homo sapiens, # = 200 uM not tested, read-out: LCC-9: concentration with effect on cancer cells
Method: as §1, §2

A549 = assay: XTT cell death assay, A549 lung carcinoma cells; assay type: cell-based; conditions: Homo sapiens, # = 200 uM not tested, read-out: A549: concentration with effect on cancer cells
Method: as §1, §2

HepG2 cells [1] = assay: XTT cell death assay, HepG2 hepatocarcinoma cells; assay type: cell-based, human; conditions: dilutions 0.01 nM to 200 μM, usually 24 or 48 hours; for minimal effective concentration: Homo sapiens, HepG2, *Greater than 50% inhibition, read-out: HepG2* (liver cancer): concentration with greater than 50% inhibition
Method: as §1, with “FBS.” for “FBS. All cell lines except MDA-MB-321 were cultured at 37° C. in 5% CO2, and the medium was replaced every 2-3 days. MDA-MB-231 was grown in Leibovitz's L-15 medium with 10% FBS without CO2 supplementation.”
as §2, with “#X4636).” for “#X4636). The plate was incubated for 4 hours at 37° C. and then the absorbance was read at a wavelength of 490 nm.”

PC3 cells = assay: XTT cell death assay, PC3 prostate carcinoma cells; assay type: cell-based; conditions: Homo sapiens, PC-3, # = 200 uM not tested, read-out: PC3: concentration with effect on cancer cells
Method: as §1, §2

A549 xenograft = assay: Zebrafish xenograft assay with implanted A549 cells; assay type: in vivo; conditions: zebrafish embryos, 100 uM, 4 days after implantation, n=10 to 15
Method: Zebrafish xenograft assay. Zebrafish embryos with implanted A549 cells were imaged within 6 hours of cell injection (day 0) and treated with compounds. At 4 days post injection (day 4) the embryos were imaged again. The area of fluorescence due to the labeled cells was measured using Image J at day 0 (area 0) and day 4 (area 4). The change in area was calculated by subtracting area 0 from area 4 (=d area). D area was then normalized for the size of the initial tumor by dividing d area by area 0 (=d area/area 0).

1321N1 cells = assay: XTT cell death assay, 1321N1 astrocytoma cells; assay type: cell-based; conditions: Homo sapiens, *Greater than 50% inhibition, dilutions 0.01 nM to 200 μM, usually 24 or 48 hours, read-out: 1321N* (brain cancer): concentration with greater than 50% inhibition
Method: as §1, with “FBS.” for “FBS. All cell lines except MDA-MB-321 were cultured at 37° C. in 5% CO2, and the medium was replaced every 2-3 days. MDA-MB-231 was grown in Leibovitz's L-15 medium with 10% FBS without CO2 supplementation.”
as §2, with “#X4636).” for “#X4636). The plate was incubated for 4 hours at 37° C. and then the absorbance was read at a wavelength of 490 nm.”

HepG2 cells [2] = assay: Caspase assay (Caspase-Glo 3/7) on HepG2 cells; assay type: cell-based, human; conditions: n=4; for caspase activity (fluorescence ratio to untreated cells): 48 hours after addition, 100 uM
Method: Caspase Assay. Caspase assay was conducted by using the Promega Caspase-Glo 3/7 kit. 100 ul of caspase-Glo 3/7 reagent was added to each well of a white walled 96-well plate containing 100 ul of blank, negative control cells or treated cells in culture medium. The contents of the wells were mixed gently and incubated at room temperature for 30 minutes to 3 hours. The luminescence of each sample was read in a luminometer.

| Structure (SMILES) | minimal effective concentration (MDA-MB-231) | minimal effective concentration (DAOY) | minimal effective concentration (MCF7/LCC9 cell line) | minimal effective concentration (A549) | minimal effective concentration (HepG2 cells [1]) | minimal effective concentration (PC3 cells) | area of A549 xenograft implant (A549 xenograft) | minimal effective concentration (1321N1 cells) | HepG2* (liver cancer): concentration with greater than 50% inhibition (HepG2 cells [1]) | caspase activity (fluorescence ratio to untreated cells) (HepG2 cells [2]) | caspase activation (fluorescence ratio to untreated cells) (HepG2 cells [2]; 48 hours, control compound at 10 uM) |
| --- | --- | --- | --- | --- | --- | --- | --- | --- | --- | --- | --- |
| Cc1ccc(CC(C)NCC(O)c2cccc(O)c2)c2ccccc12 (stereo not drawn) [NT037, 3-(1-hydroxy-2-((1-(4-methylnaphthalen-1-yl)propan-2-yl)amino)ethyl)phenol] | 100 µM | 100 µM | 100 µM | 100 µM |  |  |  |  |  |  |  |
| CC(Cc1ccc2ccccc2c1)NCC(O)c1ccccc1 (stereo not drawn) [NT020, 2-((1-(naphthalen-2-yl)propan-2-yl)amino)-1-phenylethan-1-ol] | 100 µM | 100 µM | 100 µM | 100 µM | 100 µM | 100 µM |  |  |  |  |  |
| CC(Cc1cccc2ccccc12)NCC(O)c1ccccc1O (stereo not drawn) [NT029, 2-(1-hydroxy-2-((1-(naphthalen-1-yl)propan-2-yl)amino)ethyl)phenol] |  | 100 µM | 100 µM | 100 µM | 100 µM | 200 µM | efficacy of reducing the area of xenograft significantly |  |  |  |  |
| O=C(O)c1cc(O)c(O)c(O)c1 [NT003] |  |  |  |  | 200 µM |  |  | 200 µM |  |  |  |
| CC(Cc1cccc2ccccc12)Nc1ccc(O)cc1 (stereo not drawn) [NT017, 4-((1-(naphthalen-1-yl)propan-2-yl)amino)phenol] |  | 100 µM |  | 100 µM |  | 100 µM |  | 100 µM | No effect |  |  |
| CC(N)c1ccc2ccccc2c1 (stereo not drawn) [NT010] |  |  |  |  | 200 µM |  |  | 200 µM |  |  |  |
| CC(Cc1cccc2ccccc12)NCC(O)c1ccc(O)cc1 (stereo not drawn) [NT027, 4-(1-hydroxy-2-((1-(naphthalen-1-yl)propan-2-yl)amino)ethyl)phenol] | 100 µM |  | 100 µM |  |  |  | efficacy of reducing the area of xenograft significantly |  |  | increase in caspase activity |  |
| CC(Cc1ccc2ccccc2c1)NCC(O)c1ccccc1O (stereo not drawn) [NT030, 2-(1-hydroxy-2-((1-(naphthalen-2-yl)propan-2-yl)amino)ethyl)phenol] | 100 µM | 100 µM | 100 µM | 100 µM | 100 µM | 100 µM |  |  |  |  |  |
| Cc1ccc(CC(C)NCCc2ccc(O)cc2)c2ccccc12 (stereo not drawn) [NT034] | 100 µM |  | 100 µM |  | 200 µM |  |  |  |  |  |  |
| COc1ccc2cc(C(C)N)ccc2c1 (stereo not drawn) [NT011] |  |  |  |  | 200 µM |  |  | 200 µM |  |  |  |
| CC(Cc1ccc2ccccc2c1)NCCc1ccc(O)cc1 (stereo not drawn) [NT021, 4-(2-((1-(naphthalen-2-yl)propan-2-yl)amino)ethyl)phenol] | 100 µM | 100 µM | 100 µM | 100 µM | 200 µM | 200 µM |  |  |  |  |  |
| CC(Cc1ccc2ccccc2c1)NCC(O)c1ccc(O)cc1 (stereo not drawn) [NT026, 4-(1-hydroxy-2-((1-(naphthalen-2-yl)propan-2-yl)amino)ethyl)phenol] | 100 µM | 100 µM | 100 µM | 100 µM | 100 µM | 100 µM | efficacy of reducing the area of xenograft significantly |  |  |  |  |
| C[C@H](CCC(=O)O)C[C@H](C)C[C@H](C)C(=O)/C=C(\O)[C@H](C)C[C@H](C)C/C=C/[C@@H](C)[C@@H](O)[C@@H](C)[C@@H](O)C[C@@H]1CC[C@@](C)([C@H]2CC[C@@](C)([C@@H](C)O)O2)O1 [ionomycin, reference compound] |  |  |  |  |  |  |  |  |  |  | did not show an increase in caspase activation |
| CC(Cc1ccc2ccccc2c1)NCC(O)c1cccc(O)c1 (stereo not drawn) [NT023, 3-(1-hydroxy-2-((1-(naphthalen-2-yl)propan-2-yl)amino)ethyl)phenol] | 100 µM | 100 µM | 100 µM | 100 µM | 100 µM | 100 µM |  |  |  |  |  |
| Cc1ccc(CC(C)NCC(O)c2ccc(O)cc2)c2ccccc12 (stereo not drawn) [NT039, 4-(1-hydroxy-2-((1-(4-methylnaphthalen-1-yl)propan-2-yl)amino)ethyl)phenol] |  | 100 µM | 100 µM | 100 µM |  |  | efficacy of reducing the area of xenograft significantly |  |  |  |  |
| CC(Cc1cccc2ccccc12)NCC(O)c1ccc(O)cc1 (stereo not drawn) [NT019] |  | 100 µM |  | 100 µM | 100 µM | 100 µM |  |  |  | increase in caspase activity |  |
| CC(Cc1ccc2ccccc2c1)Nc1ccc(O)cc1 (stereo not drawn) [NT018, 4-((1-(naphthalen-2-yl)propan-2-yl)amino)phenol] |  | 100 µM |  | 100 µM | 200 µM | 100 µM |  | 100 µM |  |  |  |
| CC(Cc1cccc2ccccc12)NCC(O)c1cccc(O)c1 (stereo not drawn) [NT022, 3-(1-hydroxy-2-((1-(naphthalen-1-yl)propan-2-yl)amino)ethyl)phenol] | 100 µM | 100 µM | 100 µM | 100 µM | 100 µM | 100 µM |  |  |  | increase in caspase activity |  |
| Cc1ccc(CC(C)NCC(O)c2ccccc2)c2ccccc12 (stereo not drawn) [NT038, 2-((1-(4-methylnaphthalen-1-yl)propan-2-yl)amino)-1-phenylethan-1-ol] | 100 µM | 100 µM | 100 µM | 100 µM |  |  |  |  |  |  |  |
| CC(N)c1cccc2ccccc12 (stereo not drawn) [NT009] |  |  |  |  | 100 µM |  |  | 100 µM |  |  |  |
